Reference: publication PMC6295333 (Biochemistry, 2018)

Target: Nicotine oxidoreductase (NicA2) (Pseudomonas putida, UniProt F8G0P2)
Experiment: X-ray crystal structure at […] Å
Format: binding

Sequence of Nicotine oxidoreductase (NicA2) (F8G0P2 whole entry): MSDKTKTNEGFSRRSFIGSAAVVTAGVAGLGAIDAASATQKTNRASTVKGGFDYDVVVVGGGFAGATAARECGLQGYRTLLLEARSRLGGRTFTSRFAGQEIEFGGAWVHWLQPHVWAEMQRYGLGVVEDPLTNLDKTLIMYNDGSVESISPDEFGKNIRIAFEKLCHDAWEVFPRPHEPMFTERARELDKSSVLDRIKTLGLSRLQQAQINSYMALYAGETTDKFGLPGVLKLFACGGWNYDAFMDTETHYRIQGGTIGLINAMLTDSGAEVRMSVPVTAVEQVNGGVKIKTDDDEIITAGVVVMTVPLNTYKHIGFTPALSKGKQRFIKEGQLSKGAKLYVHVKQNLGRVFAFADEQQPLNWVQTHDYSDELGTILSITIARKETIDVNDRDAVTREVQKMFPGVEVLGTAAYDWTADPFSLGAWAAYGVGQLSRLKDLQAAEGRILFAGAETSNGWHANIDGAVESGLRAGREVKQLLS

Cc1cc2nc3c(=O)[nH]c(=O)nc-3n(C[C@H](O)[C@H](O)[C@H](O)COP(=O)(O)OP(=O)(O)OC[C@H]3O[C@@H](n4cnc5c(N)ncnc54)[C@H](O)[C@@H]3O)c2cc1C [FAD]
X-ray crystal structure at 2.65 Å: The general positioning of FAD is clearly defined in the electron density maps
